“And” between values parts separate entries of the source, which are not always exact repeats. Equal entries are not always repeated. Marks after values point to notes of the source that are not given here.
Assays:
[1] = tested on: rats with abdominal aortic constriction (AAC) or sham operated; experiment: Blood pressure in caudal and carotid arteries of conscious rats, abdominal aortic constriction pressure overload model; assay type: in vivo, rat; conditions: quercetin 1.5 g/kg chow, mean ± SEM
Source text: In this procedure the abdominal aorta is constricted to increase the afterload on the heart and produce pressure overload. […] Rats consumed this diet for 7 days. On the 8th day, 5 rats were surgically modeled for pressure overload by constricting the abdominal aorta to a diameter of 0.63 mm with a Weck hemoclip. The other 5 rats were sham operated (anesthetized and the aorta exposed, but not constricted). […] Another group of 10 rats were placed on a standard diet with no supplement and treated in an identical fashion with 5 surgically modeled for pressure overload and 5 sham operated. […] Two weeks after surgery post-sacrifice morphometric measurements are obtained by measuring total heart weight, left ventricle weight, and calculating heart:body weight and left ventricle:body weight ratios to assess cardiac mass and cardiac hypertrophy. […] An identical experimental procedure as described in Example I is used with n=10 rats per group (S, AAC, SQ, AAC-Q) for a total of 40 rats. […] Rats subjected to this protocol have very high carotid blood pressure. Rats are anesthetized, a catheter is placed in the caudal and carotid arteries, rats are allowed to regain consciousness for 60 minutes and blood pressures are measured.

[2] = tested on: Akt; experiment: Akt signaling status in left ventricle, immunoblot; assay type: in vivo, rat; conditions: AAC rats fed supplemental quercetin
Experimental: Determination of ERK1/2 and Akt signaling status (FIGS. 4A & 4B). All extraction procedures were performed at 4° C. […] After homogenization, the samples were sonicated twice on ice and centrifuged at 11,000×g for 10 min. at 4° C. Supernatants were recovered and stored at −80° C. for subsequent immunoblotting. Protein concentration of whole heart cell lysate was determined using a Bio-Rad Protein assay (Bio-Rad, Hercules, Calif.) with bovine serum albumin (BSA) as a standard.

[3] = tested on: spontaneously hypertensive rats; experiment: Blood pressure in spontaneously hypertensive (SH) rats; assay type: in vivo, rat
Experimental: As described herein, this strain is well documented to have normal blood pressure until about 5-6 weeks of age (Makita and Yasuda, 1990). After about 5-6 weeks, the rats suffer from steadily increasing blood pressure from about 6 weeks of age until peaking at about 12-15 weeks of age.
Blood pressure was measured in SHR and SHRQ rats by lightly anesthetizing the animals using ketamine/xylazine (75/3.75 mg/kg i.p.). Rats were prewarmed for 15 minutes on heated platform and blood pressure was measured using a Visitech BP 2000 blood pressure system. Pressure measurements are reported as the average of between 4 and 8 separate measurements taken over a 70 second period. All rats fully recovered within […] after receiving anesthesia.
Blood pressure blood pressure was measured for each group at 6, 7.5, 9 and 10 weeks. Dietary supplement was initiated at 5 weeks and maintained throughout the experiment.
In a separate experiment using SH rats (dietary supplement was likewise initiated at 5 weeks), blood pressure was measured at 17 weeks.

[4] = Plasma quercetin in trial subjects (HPLC); assay type: in vivo; conditions: human, oral
Experimental: (§1) Blood samples were collected after blood pressure was measured. Blood was collected by antecubital venipuncture from fasting subjects into sodium heparin tubes (Becton Dickinson, N.J., USA). Collected blood was immediately stored on ice and centrifuged within 10 minutes at 4° C. for 15 minutes at 2500 g as previously described (36).
Supernatants then were extracted with ethyl acetate and injected into an HPLC Discovery C18 column. The mobile phase was 1% acetic acid (solvent A) and 95% acetonitrile in 1% phosphoric acid (solvent B). The gradient elution was solvent B from 10 to 85% in 20 minutes, holding for 5 minutes before returning back to 10% for conditioning. A visible detector with 365 nm was used.

[5] = tested on: 8-isoprostane F2α; experiment: Urinary 8-isoprostane F2α, enzyme-linked immunoassay; assay type: in vivo, human; conditions: for Urinary Isoprostane, Endpoint: end of quercetin phase
Experimental: During each patient visit whole blood (˜50 μL) was obtained from a digit puncture to determine blood lipids (LDL, VLDL, HDL, total cholesterol) and glucose using a clinical Cholestech LDX blood analyzer (37). Prior to each patient visit, first morning urine was collected, brought to the laboratory, and stored at −80° C. for later analysis of isoprostane concentrations. Urine 8-isoprostane F2α is a measure of lipid peroxidation and can be used to estimate oxidative stress in humans (45-47). Quantification of 8-isoprostane F2α (also known as 8-epi-PGF2α or 8-iso-PGF2α) in urine samples was performed using a competitive enzyme-linked immunoassay kit (Cayman Chemical, Ann Arbor, Mich.) according to the manufacturers instructions.

[6] = Ferric reducing antioxidant power (FRAP) of plasma; assay type: in vivo, human; conditions: for FRAP, Endpoint: end of quercetin phase
Experimental: as §1
FRAP measures the ability of an antioxidant to reduce Fe^3+ to Fe^2+ (40), and is an index of plasma antioxidant potential in hypertensive patients (41-44). This assay was done as previously described (39). Briefly, plasma samples were diluted 1:2 with phosphate buffered saline, followed by addition of a reagent solution containing 0.8 mmol/L 2,4,6-tri-(2-pyridyl)-s-tirazine and 1.7 mmol/l FeCl3.6-H2O. Samples were then incubated at 37° C. for 15 min and the absorbance at 593 nm was recorded in a plate reader (Molecular Devices, Spectramax 340 pc).

[7] = Trial: fasting blood lipids and glucose (Cholestech LDX); assay type: in vivo, human; conditions: after quercetin supplementation compared to placebo (data not shown)
Experimental: During each patient visit whole blood (˜50 μL) was obtained from a digit puncture to determine blood lipids (LDL, VLDL, HDL, total cholesterol) and glucose using a clinical Cholestech LDX blood analyzer (37). Prior to each patient visit, first morning urine was collected, brought to the laboratory, and stored at −80° C. for later analysis of isoprostane concentrations.

[8] = tested on: normotensive individuals; conditions: 1000 mg/day of quercetin for one month (Conquer et al.); cited from earlier work
[9] = tested on: mice with surgically induced abdominal aortic constriction; conditions: oral, 5 day, 120 mg/kg/day (Wang et al., 1999); cited from earlier work
[10] = tested on: PKC; conditions: cytosol and membrane fraction of cells from thyroid, brain, liver, fibroblasts; μM concentrations of quercetin; cited from earlier work
[11] = 1.5 g/kg chow quercetin from 5 weeks of age, measured at 6 to 10 weeks, vs control diet
[12] = both groups of hypertensive subjects

Q: For `O=c1c(O)c(-c2ccc(O)c(O)c2)oc2cc(O)cc(O)c12` [quercetin, 3,5,7,3′,4′-pentahydroxyflavone], which “Caudal MAP (mean arterial pressure)” value ([1]; AAC + Q: AAC rats) is on record?
A: 108.0 ± 7.1 mmHg

Q: And the “Diastolic Caudal blood pressure” value ([1]; AAC + Q: AAC rats)?
A: 104.7 ± 5.5^b mmHg

Q: What about the “Gradient MAP” value ([1]; AAC + Q: AAC rats) of the same compound?
A: 18.3 ± 4.4^b mmHg

Q: What about the “Systolic Caudal blood pressure” value ([1]; AAC + Q: AAC rats) of the same compound?
A: 118.3 ± 6.4 mmHg

Q: What about the “Systolic Carotid blood pressure” value ([1]; AAC + Q: AAC rats, untreated AAC 201.4 ± 11.4) of the same compound?
A: 158.8±10.3 mmHg and 158.8 ± 10.3^b mmHg

Q: What about the “Carotid MAP (mean arterial pressure)” value ([1]; Sham + Q: sham operated rats) of the same compound?
A: 113.5 ± 3.8^a mmHg

Q: And the “Caudal MAP (mean arterial pressure)” value ([1]; Sham + Q: sham operated rats)?
A: 100.6 ± 3.0 mmHg

Q: And the “Diastolic Carotid blood pressure” value ([1]; Sham + Q: sham operated rats)?
A: 106.2 ± 4.8^a mmHg

Q: What about the “Diastolic Caudal blood pressure” value ([1]; Sham + Q: sham operated rats) of the same compound?
A: 93.6 ± 3.2^a mmHg

Q: And the “Diastolic Gradient (carotid vs caudal)” value ([1]; Sham + Q: sham operated rats)?
A: 7.0 ± 2.9^a mmHg

Q: And the “Gradient MAP” value ([1]; Sham + Q: sham operated rats)?
A: 7.2 ± 1.9^ab mmHg

Q: What about the “Systolic Carotid blood pressure” value ([1]; Sham + Q: sham operated rats) of the same compound?
A: 128.2 ± 1.9^a mmHg

Q: And the “Systolic Caudal blood pressure” value ([1]; Sham + Q: sham operated rats)?
A: 114.7 ± 3.2 mmHg

Q: And the “Systolic Gradient (carotid vs caudal)” value ([1]; Sham + Q: sham operated rats)?
A: 7.3 ± 1.9^a mmHg

Q: And the “activation of Akt” value [2]?
A: prevented

Q: And the onset of hypertension ([3]; 1.5 g quercetin/kg diet from 5 weeks of age)?
A: delayed the onset of hypertension

Q: What about the diastolic pressure [3, 11] of the same compound?
A: did not show a statistically significant changed

Q: And the mean arterial pressure [3, 11]?
A: did not show a statistically significant changed

Q: And the systolic blood pressure [3, 11]?
A: decreased systolic blood pressure

Q: What about the “blood pressure at 17 weeks” value ([3]; separate experiment, supplement from 5 weeks, control vs quercetin treated) of the same compound?
A: No significant difference in blood pressure

Q: What about the concentration at 1 week after end of supplementation [4] of the same compound?
A: 190 ± 9 ng/mL

Q: What about the concentration at 4 weeks ([4]; 730 mg/day for 4 weeks, fasted, 235±35 after placebo) of the same compound?
A: 480 ± 64 ng/mL

Q: What about the “fasting urinary 8-isoprostane F2α concentration, quercetin supplementation vs. placebo” value [5, 12] of the same compound?
A: not altered

Q: And the “Urinary Isoprostane, Endpoint” value ([5]; prehypertensive (n=10), baseline 518 ± 55)?
A: 520 ± 75 ng/g creatine

Q: And the “Urinary Isoprostane, Endpoint” value ([5]; stage 1 hypertensive (n=8), baseline 822 ± 249)?
A: 549 ± 59 ng/g creatine

Q: What about the “fasting plasma FRAP, quercetin supplementation vs. placebo” value [6, 12] of the same compound?
A: not altered

Q: What about the “FRAP, Endpoint” value ([6]; prehypertensive (n=10), baseline 1080 ± 48) of the same compound?
A: 1106 ± 61 µmol/L

Q: What about the “FRAP, Endpoint” value ([6]; stage 1 hypertensive (n=8), baseline 1056 ± 59) of the same compound?
A: 1152 ± 69 µmol/L

Q: What about the “Fasting blood glucose levels” value [7] of the same compound?
A: unchanged

Q: And the blood pressure [8]?
A: no changes in blood pressure

Q: And the plasma quercetin concentrations [8]?
A: 427 ± 89 ng/mL

Q: What about the cardiac hypertrophy [9] of the same compound?
A: prevented cardiac hypertrophy

Q: What about the PKC activity [10] of the same compound?
A: inhibition of PKC activity

Source: US20080026076A1 (priority 2003, published 2008)
